Data taken from patent publication US20110269817A1, “COMPOSITIONS AND METHODS RELATED TO SIRT1 FUNCTION” (The Regents of the University of California, priority 2008, published 2011).
Entries after “also recorded” stand apart in the source; their conditions may differ. Where two headings read alike, the source gives them in different places.

Tests used:
SIRT1 = target: T1, SIRT1 (Homo sapiens, UniProt Q96EB6); assay: BMAL1 deacetylation by SIRT1 in JEG3 cells transfected with Myc-CLOCK, Flag-Myc-BMAL1 and SIRT1-HA; assay type: cell-based; conditions: 1 mM NAD+ or 10 mM NAM for 16 hr
T1 construct: expressed in transfected cells; host or cells: JEG3
T1 sequence (Q96EB6 1-747): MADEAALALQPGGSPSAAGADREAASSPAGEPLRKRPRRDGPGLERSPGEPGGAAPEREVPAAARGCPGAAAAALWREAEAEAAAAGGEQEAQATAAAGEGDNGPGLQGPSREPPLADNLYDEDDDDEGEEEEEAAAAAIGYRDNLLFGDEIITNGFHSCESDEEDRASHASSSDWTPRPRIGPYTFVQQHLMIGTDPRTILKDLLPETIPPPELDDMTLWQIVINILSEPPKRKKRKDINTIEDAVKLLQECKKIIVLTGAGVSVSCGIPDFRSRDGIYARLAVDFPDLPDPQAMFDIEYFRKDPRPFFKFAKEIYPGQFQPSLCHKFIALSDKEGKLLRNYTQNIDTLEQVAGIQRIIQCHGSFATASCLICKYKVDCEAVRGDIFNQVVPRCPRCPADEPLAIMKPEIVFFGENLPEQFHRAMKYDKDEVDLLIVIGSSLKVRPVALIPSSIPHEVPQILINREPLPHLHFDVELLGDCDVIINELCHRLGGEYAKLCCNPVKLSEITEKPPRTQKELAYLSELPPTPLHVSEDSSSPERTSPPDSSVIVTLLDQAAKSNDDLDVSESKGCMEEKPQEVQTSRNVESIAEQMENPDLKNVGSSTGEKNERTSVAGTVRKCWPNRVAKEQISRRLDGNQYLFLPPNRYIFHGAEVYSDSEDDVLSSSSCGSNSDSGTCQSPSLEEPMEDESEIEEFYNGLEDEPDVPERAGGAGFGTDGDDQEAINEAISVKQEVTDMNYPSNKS
Description: (D) Deacetylation of BMAL1 by SIRT1 is NAD^+ dependent manner. JEG3 cells transfected with Myc-CLOCK and Flag-Myc-BMAL1 and SIRT1-HA were treated with 1 mM NAD^+ or 10 mM NAM for 16 hr before harvest. Immunoprecipitated BMAL1 proteins by FLAG antibody were probed with acetylated BMAL1 antibody. SIRT1 protein amount was detected by SIRT1 antibody.
(§1) Recently we have reported that BMAL1 is rhythmically acetylated by CLOCK and that this event is essential for control of circadian function (Hirayama et al., 2007). We have generated an antibody that specifically recognizes acetylated BMAL1 at Lys537 (FIG. 10). Because of the interplay between CLOCK and SIRT1, we suspected that the deacetylase that could regulate the dynamic levels of BMAL1 acetylation could be SIRT1. To identify which class of HDAC is responsible for deacetylation of BMAL1, we treated cultured cells expressing Myc-CLOCK and Flag-Myc-BMAL1 with class I and II inhibitor, trichostatin A (TSA), and/or class III inhibitor, NAM, for 6 hr and 16 hr, respectively. […] We then coexpressed BMAL1 with CLOCK and confirmed that the anti-AcBMAL1 antibody readily recognizes CLOCK-induced acetylation at Lys537 (FIG. 6B). […] We also confirmed that SIRT1 readily deacetylates BMAL1 in an in vitro deacetylation assay (FIG. 11).

CLOCK-SIRT1 interaction = CLOCK-SIRT1 interaction (coimmunoprecipitation) in transfected JEG3 cells; assay type: cell-based, human; conditions: treated 1, 2 and 6 h, 1 mM NAD+, 10 mM glucose, 1 mM pyruvate, 100 μM DFO, 100 μM resveratrol, 120 μM splitomicin
Description: The effect of various agents on the CLOCK-SIRT1 interaction was analyzed. […] JEG3 cells were cultured in BME containing 10% FBS and transfected with Myc-CLOCK, Myc-BMAL1, and Flag-SIRT1 constructs. Negative control (NC) represents cells transfected only with Myc-CLOCK and Myc-BMAL1. 24 h after transfection cells were replated, allowed to readhere for another 16 hours, and treated with indicated reagents for 1, 2 and 6 hours. Here the results with 6 h treatment are shown, the same results were obtained at 1 h and 2 h. Nuclear extracts were processed as previously described (Hirayama et al. 2007). This experiment was performed 3 times and a representative result is shown.
Legend: Lane 1: control (C); lane 2: 50% horse serum (HS); lane 3: 1 mM NAD^+ (NAD^+); lane 4: 10 mM glucose (Glc); lane 5: 1 mM pyruvate (Pyr); 6: 100 μM DFO (DF); lane 7: 100 μM resveratrol; (Res) lane 8:120 μM splitomicin (Split). Lane 9: negative control (NC).

Sirt1−/− MEFs = assay: circadian gene expression in serum-shocked Sirt1−/− MEFs treated with SIRT1 inhibitors; assay type: cell-based, mouse
Description: (§2) MEFs were generated from WT or homozygous Sirt1−/− sibling mice and cultured in DMEM (4.5 g/l glucose) supplemented with 7.5% newborn bovine serum, 2.5% FBS, and antibiotics. JEG3 cells were grown in Basal Medium Eagle supplemented with 10% FBS and antibiotics.

[1] = tested on: dbp expression levels in WT MEFs; assay: dbp circadian expression in serum-shocked WT MEFs treated with SIRT1 inhibitors, quantitative PCR; assay type: cell-based, mouse
Description: (A) Dbp expression levels in MEFs either treated with SIRT1 inhibitors (10 mMNAM or […]) or not were analyzed by quantitative PCR. The value at time 20 in MEFs without treatment was set to 1.
as §2
Each quantitative real-time RT-PCR was performed using the Chromo4 real time detection system (BIO-RAD). The PCR primers for mDbp mRNA, mPer2 mRNA, mCry 1 mRNA, 18S rRNA, Dbp UP, Dbp E-box, Dbp 30R, and mSIRT1 mRNA were described (Ripperger and Schibler, 2006; Rodgers et al., 2005; Yamamoto et al., 2004). PCR primers for Dbp TSS were designed using Real-Time PCR Primer Design (https://www.genscript.com/ssl-bin/app/primer), and the sequences are available upon request. For a […] PCR, 50 ng of cDNA template was mixed with the primers to final concentrations of 200 nM and […] of iQ SYBR Green Supermix (BIO-RAD), respectively. The reaction was first incubated at 95° C. for 3 min, followed by 40 cycles at 95° C. for 30 s and 60° C. for 1 min.

[2] = tested on: histone H3 Lys9/Lys14 acetylation at the Dbp transcription start site; assay: ChIP assay of histone H3 (Lys9/Lys14) acetylation at dbp TSS in serum-shocked MEFs; assay type: cell-based, mouse; conditions: WT MEFs after serum shock, 10 mM NAM or
Description: (B-D) Crosslinked cell extracts were isolated from MEF without treatment (B) or with SIRT1 inhibitors, 10 mMNAM (C), or […] (D) at indicated time points after serum shock, subjected to ChIP assay, and analyzed by quantitative PCR with dbp TSS primers (See FIG. 4C). Results of semiquantitative PCR are also shown at the bottom of each experiment. The value at time 16 in MEFs without treatment was set to 1. All data presented are the means±SEM of three independent samples.
Conventional ChIP assay was used for histones from MEFs (Yamamoto et al., 2004). For nonhistone proteins, dual crosslinking ChIP assay (Nowak et al., 2005) was used with slight modifications. After serum shock, cells were washed three times with room temperature PBS, then PBS/1 mM MgCl2 was added. Disuccinimidyl Glutalate (DSG) was added to a final concentration of 2 mM for crosslinking. After 45 min at room temperature, formaldehyde was added to a final concentration of 1% (v/v) and cells incubated for 15 min. […]
We analyzed the acetylation at Lys9 and Lys14 of histone H3 because we had previously found these to be preferential sites of CLOCK's HAT activity (Doi et al., 2006), and also because SIRT1 deacetylase function was described to be targeted to these lysines (Imai et al., 2000). […]

BMAL1 Lys537 acetylation = BMAL1 Lys537 acetylation in JEG3 cells expressing Myc-CLOCK and Flag-Myc-BMAL1, HDAC inhibitor treatment; assay type: cell-based, human; conditions: NAM (10 mM) 16 hr
Description: (A) Class III HDAC inhibitor enhances BMAL1 Lys537 acetylation. JEG3 cells transfected with Myc-CLOCK and Flag-Myc-BMAL1 were treated with HDAC I and II inhibitor, TSA […], for 6 hr and HDAC III inhibitor, NAM (10 mM), for 16 hr before harvest. Immunoprecipitated BMAL1 proteins by FLAG antibody were subjected to SDS-PAGE and probed with acetylated BMAL1 or Myc antibodies.
as §1

Structure (SMILES)	BMAL1 deacetylation by SIRT1 (SIRT1)	modulation of the CLOCK-SIRT1 interaction (CLOCK-SIRT1 interaction)	circadian acetylation of histone H3 Lys9/Lys14 at Dbp TSS [2]	also measured
NC(=O)c1ccc[n+]([C@@H]2O[C@H](COP(=O)([O-])OP(=O)(O)OC[C@H]3O[C@@H](n4cnc5c(N)ncnc54)[C@H](O)[C@@H]3O)[C@@H](O)[C@H]2O)c1 [NAD^+, nicotinamide adenine dinucleotide]	responsive	not significantly modulated	–	–
CC(=O)N(O)CCCCCNC(=O)CCC(=O)N(O)CCCCCNC(=O)CCC(=O)N(O)CCCCCN [desferroxamine]	–	not significantly modulated	–	–
Oc1ccc(C=Cc2cc(O)cc(O)c2)cc1 [resveratrol]	–	not significantly modulated	–	–
O=C1CCc2c(ccc3ccccc23)O1 [splitomicin]	–	not significantly modulated	loss in the circadian oscillation of acetylation, generating a noncyclic, high level of Lys9/Lys14 acetylation	effect of SIRT1 inhibitors on circadian gene expression in Sirt1−/− MEFs (Sirt1−/− MEFs; Sirt1−/− MEFs, data not shown): no effect; dbp expression pattern (circadian oscillation) [1]: significantly broader phase and higher amplitude in the oscillation; also recorded: loss in stringency of circadian gene expression
NC(=O)c1cccnc1 [NAM, nicotinamide]	significantly attenuated	–	loss in the circadian oscillation of acetylation, generating a noncyclic, high level of Lys9/Lys14 acetylation	acetylation of BMAL1 at Lys537 (BMAL1 Lys537 acetylation): significantly increased; effect of SIRT1 inhibitors on circadian gene expression in Sirt1−/− MEFs (Sirt1−/− MEFs): no effect; dbp expression pattern (circadian oscillation) ([1]; WT MEFs after serum shock, 10 mM NAM or splitomicin): significantly broader phase and higher amplitude in the oscillation; also recorded: loss in stringency of circadian gene expression
